Laboratory results taken from US9243001B2, “Substituted benzene compounds” (Epizyme, Inc., priority 2013, dated 2016).
pIC50: −log10 of the molar value.

target: T1, wild-type EZH2 (PRC2 enzyme) (Homo sapiens, UniProt Q15910); assay: PRC2 enzyme assay on peptide substrates (wild-type EZH2); assay type: biochemical; details: wild-type PRC2 enzyme 4 nM, H3K27me0 peptide substrate, 3H-SAM Flashplate; read-out: WT EZH2 IC50
T1 construct: made in house; host or cells: Spodoptera frugiperda (sf9) cells, baculovirus
Text: General Materials. S-adenosylmethionine (SAM), S-adenosylhomocyteine (SAH), bicine, KCl, Tween20, dimethylsulfoxide (DMSO) and bovine skin gelatin (BSG) were purchased from Sigma-Aldrich at the highest level of purity possible. Dithiothreitol (DTT) was purchased from EMD Millipore. ^3H-SAM was purchased from American Radiolabeled Chemicals with a specific activity of 80 Ci/mmol. 384-well streptavidin Flashplates were purchased from PerkinElmer.
Substrates. Peptides representative of human histone H3 residues 21- 44 containing either an unmodified lysine 27 (H3K27me0) or dimethylated lysine 27 (H3K27me2) are synthesized with a C-terminal G(K-biotin) linker-affinity tag motif and a C-terminal amide cap by 21st Century Biochemicals. The peptides are high-performance liquid chromatography (HPLC) purified to greater than 95% purity and confirmed by liquid chromatography mass spectrometry (LC-MS). The sequences are listed below.
Recombinant PRC2 Enzymes. Human PRC2 enzymes were purified as 4-component enzyme complexes co-expressed in Spodoptera frugiperda (sf9) cells using a baculovirus expression system. The subunits expressed were wild-type EZH2 (NM_004456) or EZH2 Y641F, N, H, S or C mutants generated from the wild-type EZH2 construct, EED (NM_003797), Suz12 (NM_015355) and RbAp48 (NM_005610). The EED subunit contained an N-terminal FLAG tag that was used to purify the entire 4-component complex from sf9 cell lysates. The purity of the complexes met or exceeded 95% as determined by SDS-PAGE and Agilent Bioanalyzer analysis. Concentrations of enzyme stock concentrations (generally 0.3-1.0 mg/mL) was determined using a Bradford assay against a bovine serum albumin (BSA) standard.
General Procedure for PRC2 Enzyme Assays on Peptide Substrates. The assays were all performed in a buffer consisting of 20 mM bicine (pH=7.6), 0.5 mM DTT, 0.005% BSG and 0.002% Tween20, prepared on the day of use. Compounds in 100% DMSO (1 μL) were spotted into polypropylene 384-well V-bottom plates (Greiner) using a Platemate 2×3 outfitted with a 384-channel pipet head (Thermo). DMSO (1 μL) was added to columns 11, 12, 23, 24, rows A -H for the maximum signal control, and SAH, a known product and inhibitor of PRC2 (1 μL) was added to columns 11,12, 23, 24, rows I -P for the minimum signal control. A cocktail (40 μL) containing the wild-type PRC2 enzyme and H3K27me0 peptide or any of the Y641 mutant enzymes and H3K27me2 peptide was added by Multidrop Combi (Thermo). The compounds were allowed to incubate with PRC2 for 30 min at 25° C., then a cocktail (10 μL) containing a mixture of non-radioactive and ^3H-SAM was added to initiate the reaction (final volume=51 μL). In all cases, the final concentrations were as follows: wild-type or mutant PRC2 enzyme was 4 nM, SAH in the minimum signal control wells was 1 mM and the DMSO concentration was 1%. The assays were stopped by the addition of non-radioactive SAM (10 μL) to a final concentration of 600 μM, which dilutes the ^3H-SAM to a level where its incorporation into the peptide substrate is no longer detectable. 50 μL of the reaction in the 384-well polypropylene plate was then transferred to a 384-well Flashplate and the biotinylated peptides were allowed to bind to the streptavidin surface for at least 1 h before being washed three times with 0.1% Tween20 in a Biotek ELx405 plate washer. The plates were then read in a PerkinElmer TopCount platereader to measure the quantity of ^3H-labeled peptide bound to the Flashplate surface, measured as disintegrations per minute (dpm) or alternatively, referred to as counts per minute (cpm).
Where dpm=disintegrations per minute, cmpd=signal in assay well, and min and max are the respective minimum and maximum signal controls.
Where top and bottom are the normally allowed to float, but may be fixed at 100 or 0 respectively in a 3-parameter fit. The Hill Coefficient normally allowed to float but may also be fixed at 1 in a 3-parameter fit. […]

T1 sequence (Q15910 1-751 isoform Q15910-2): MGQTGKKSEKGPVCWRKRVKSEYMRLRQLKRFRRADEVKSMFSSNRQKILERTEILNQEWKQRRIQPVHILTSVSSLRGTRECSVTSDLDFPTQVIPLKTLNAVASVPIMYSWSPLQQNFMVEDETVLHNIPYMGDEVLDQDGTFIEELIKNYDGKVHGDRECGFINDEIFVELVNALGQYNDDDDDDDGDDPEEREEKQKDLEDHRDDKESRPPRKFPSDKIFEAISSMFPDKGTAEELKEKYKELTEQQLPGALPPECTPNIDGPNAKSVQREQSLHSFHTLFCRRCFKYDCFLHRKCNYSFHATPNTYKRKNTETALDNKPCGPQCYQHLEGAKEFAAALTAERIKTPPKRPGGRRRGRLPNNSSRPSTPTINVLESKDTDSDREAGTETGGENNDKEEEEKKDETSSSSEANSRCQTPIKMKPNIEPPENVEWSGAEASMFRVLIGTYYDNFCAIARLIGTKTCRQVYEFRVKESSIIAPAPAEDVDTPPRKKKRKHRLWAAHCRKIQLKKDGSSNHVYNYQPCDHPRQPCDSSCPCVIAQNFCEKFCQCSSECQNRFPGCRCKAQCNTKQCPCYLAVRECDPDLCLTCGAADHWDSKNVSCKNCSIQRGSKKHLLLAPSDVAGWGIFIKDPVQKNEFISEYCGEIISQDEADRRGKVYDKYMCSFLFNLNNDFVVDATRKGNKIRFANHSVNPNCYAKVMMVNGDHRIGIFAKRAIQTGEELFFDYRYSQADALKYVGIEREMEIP
T1 sequence (O75530 whole entry partner): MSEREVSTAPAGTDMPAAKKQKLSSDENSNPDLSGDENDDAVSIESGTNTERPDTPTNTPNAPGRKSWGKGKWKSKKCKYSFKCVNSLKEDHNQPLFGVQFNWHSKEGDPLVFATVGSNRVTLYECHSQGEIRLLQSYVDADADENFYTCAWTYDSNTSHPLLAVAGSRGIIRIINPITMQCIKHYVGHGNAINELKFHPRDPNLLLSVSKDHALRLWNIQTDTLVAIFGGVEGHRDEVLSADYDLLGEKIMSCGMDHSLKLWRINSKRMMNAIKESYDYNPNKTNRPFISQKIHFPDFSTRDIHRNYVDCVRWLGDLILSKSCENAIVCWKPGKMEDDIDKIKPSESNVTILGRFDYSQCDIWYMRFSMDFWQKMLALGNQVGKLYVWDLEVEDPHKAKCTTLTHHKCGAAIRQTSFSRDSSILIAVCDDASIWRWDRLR
T1 sequence (Q15022 whole entry partner): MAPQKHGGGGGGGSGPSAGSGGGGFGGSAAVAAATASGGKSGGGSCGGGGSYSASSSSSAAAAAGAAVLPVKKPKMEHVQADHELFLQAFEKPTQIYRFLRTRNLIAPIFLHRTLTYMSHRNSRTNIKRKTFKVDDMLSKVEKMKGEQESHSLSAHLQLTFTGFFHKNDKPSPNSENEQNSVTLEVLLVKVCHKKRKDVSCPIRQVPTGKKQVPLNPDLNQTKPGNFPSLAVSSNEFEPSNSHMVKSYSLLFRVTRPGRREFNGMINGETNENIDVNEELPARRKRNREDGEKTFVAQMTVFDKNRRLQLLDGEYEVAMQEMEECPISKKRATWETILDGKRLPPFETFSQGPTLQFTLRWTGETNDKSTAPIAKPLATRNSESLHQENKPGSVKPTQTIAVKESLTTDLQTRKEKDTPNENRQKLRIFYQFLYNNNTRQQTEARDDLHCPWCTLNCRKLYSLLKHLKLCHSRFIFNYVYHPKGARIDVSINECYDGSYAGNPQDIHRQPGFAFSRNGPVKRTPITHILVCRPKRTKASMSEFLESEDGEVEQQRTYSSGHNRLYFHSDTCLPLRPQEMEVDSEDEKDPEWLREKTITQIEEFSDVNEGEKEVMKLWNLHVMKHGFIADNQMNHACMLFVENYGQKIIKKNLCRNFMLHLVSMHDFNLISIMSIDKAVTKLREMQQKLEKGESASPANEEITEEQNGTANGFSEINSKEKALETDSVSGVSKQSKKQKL
T1 sequence (Q09028 whole entry partner): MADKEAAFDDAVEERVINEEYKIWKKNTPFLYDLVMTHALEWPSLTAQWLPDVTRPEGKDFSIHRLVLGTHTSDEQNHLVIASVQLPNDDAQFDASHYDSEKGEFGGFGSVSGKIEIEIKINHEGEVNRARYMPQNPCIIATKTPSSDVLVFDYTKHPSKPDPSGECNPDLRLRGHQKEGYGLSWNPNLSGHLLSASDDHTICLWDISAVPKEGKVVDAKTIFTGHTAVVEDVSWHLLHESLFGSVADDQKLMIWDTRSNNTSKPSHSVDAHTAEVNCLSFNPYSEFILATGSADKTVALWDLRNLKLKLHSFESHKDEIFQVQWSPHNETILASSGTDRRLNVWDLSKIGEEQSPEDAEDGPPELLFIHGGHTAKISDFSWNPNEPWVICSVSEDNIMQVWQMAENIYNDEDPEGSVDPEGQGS

Question: CCN(c1cc(Cl)cc(C(=O)NCc2c(C)cc(C)n3ccnc23)c1C)[C@H]1CC[C@H](N(C)C)CC1 [Compound 1, 5-chloro-3-(((trans)-4-(dimethylamino)cyclohexyl)(ethyl)amino)-N-((5,7-dimethylimidazo[1,2-a]pyridin-8-yl)methyl)-2-methylbenzamide] was tested. Which pIC50 did it give?
Answer: 6.36

Question: CCN(c1cc(Cl)cc(C(=O)NCc2c(C)ccn3ccnc23)c1C)[C@H]1CC[C@H](N(C)C)CC1 [Compound 2, 5-chloro-3-(((trans)-4-(dimethylamino)cyclohexyl)(ethyl)amino)-2-methyl-N-((7-methylimidazo[1,2-a]pyridin-8-yl)methyl)benzamide] was tested. Which pIC50 did it give?
Answer: 5.86

Question: How did the pIC50 turn out when CCN(c1cc(Cl)cc(C(=O)NCc2cccn3ccnc23)c1C)[C@H]1CC[C@H](N(C)C)CC1 [Compound 3, 5-chloro-3-(((trans)-4-(dimethylamino)cyclohexyl)(ethyl)amino)-N-(imidazo[1,2-a]pyridin-8-ylmethyl)-2-methylbenzamide] was run?
Answer: 5.66

Question: How did the pIC50 turn out when CCN(c1cc(Cl)cc(C(=O)NCc2ccc(C)c3cn(C)nc23)c1C)C1CCC(N(C)C)CC1 (centres unmarked) [Compound 4, 5-chloro-N-((2,4-dimethyl-2H-indazol-7-yl)methyl)-3-(((1s,4s)-4-(dimethylamino)cyclohexyl)(ethyl)amino)-2-methylbenzamide] was run?
Answer: 5.29

Question: CCN(c1cc(Cl)cc(C(=O)NCc2c(C)ccc3cn(C)nc23)c1C)[C@H]1CC[C@H](N(C)C)CC1 [Compound 5, 5-chloro-N-((2,6-dimethyl-2H-indazol-7-yl)methyl)-3-(((trans)-4-(dimethylamino)cyclohexyl)(ethyl)amino)-2-methylbenzamide] was tested. Which pIC50 did it give?
Answer: < 5.00

Question: How did the pIC50 turn out when CCN(c1cc(Cl)cc(C(=O)NCc2cccc3cn(C)nc23)c1C)[C@H]1CC[C@H](N(C)C)CC1 [Compound 6, 5-chloro-3-(((trans)-4-(dimethylamino)cyclohexyl)(ethyl)amino)-2-methyl-N-((2-methyl-2H-indazol-7-yl)methyl)benzamide] was run?
Answer: < 5.00

Question: How did the pIC50 turn out when CCN(c1cc(Cl)cc(C(=O)NCc2cccc3ccnn23)c1C)[C@H]1CC[C@H](N(C)C)CC1 [Compound 7, 5-chloro-3-(((trans)-4-(dimethylamino)cyclohexyl)(ethyl)amino)-2-methyl-N-(pyrazolo[1,5-a]pyridin-7-ylmethyl)benzamide] was run?
Answer: < 5.00

Question: How did the pIC50 turn out when CCN(c1cc(Cl)cc(C(=O)NCCc2nccn2C)c1C)[C@H]1CC[C@H](N(C)C)CC1 [Compound 8, 5-chloro-3-(((trans)-4-(dimethylamino)cyclohexyl)(ethyl)amino)-2-methyl-N-(2-(1-methyl-1H-imidazol-2-yl)ethyl)benzamide] was run?
Answer: 4.92

Question: CCN(c1cc(Cl)cc(C(=O)NCCc2nccn2Cc2ccccc2)c1C)[C@H]1CC[C@H](N(C)C)CC1 [Compound 9, N-(2-(1-benzyl-1H-imidazol-2-yl)ethyl)-5-chloro-3-(((trans)-4-(dimethylamino)cyclohexyl)(ethyl)amino)-2-methylbenzamide] was tested. Which pIC50 did it give?
Answer: 5.78

Question: With CCN(c1cc(Cl)cc(C(=O)NCCc2ncc[nH]2)c1C)[C@H]1CC[C@H](N(C)C)CC1 [Compound 10, N-(2-(1H-imidazol-2-yl)ethyl)-5-chloro-3-(((trans)-4-(dimethylamino)cyclohexyl)(ethyl)amino)-2-methylbenzamide] as the compound, how does the pIC50 read?
Answer: 5.69

Question: How did the pIC50 turn out when CCN(c1cc(Cl)cc(C(=O)NCCc2nc3ccccc3n2C)c1C)[C@H]1CC[C@H](N(C)C)CC1 [Compound 11, 5-chloro-3-(((trans)-4-(dimethylamino)cyclohexyl)(ethyl)amino)-2-methyl-N-(2-(1-methyl-1H-benzo[d]imidazol-2-yl)ethyl)benzamide] was run?
Answer: < 4.30

Question: CCN(c1cc(Cl)cc(C(=O)NCCc2nccs2)c1C)[C@H]1CC[C@H](N(C)C)CC1 [Compound 12, 5-chloro-3-(((trans)-4-(dimethylamino)cyclohexyl)(ethyl)amino)-2-methyl-N-(2-(thiazol-2-yl)ethyl)benzamide] was tested. Which pIC50 did it give?
Answer: < 4.30

Question: CCN(c1cc(Cl)cc(C(=O)NCCc2nc3ccccc3s2)c1C)[C@H]1CC[C@H](N(C)C)CC1 [Compound 13, N-(2-(benzo[d]thiazol-2-yl)ethyl)-5-chloro-3-(((trans)-4-(dimethylamino)cyclohexyl)(ethyl)amino)-2-methylbenzamide] was tested. Which pIC50 did it give?
Answer: 4.42

Question: How did the pIC50 turn out when CCN(c1cc(Cl)cc(C(=O)NCCc2nc3ccccc3o2)c1C)[C@H]1CC[C@H](N(C)C)CC1 [Compound 14, N-(2-(benzo[d]oxazol-2-yl)ethyl)-5-chloro-3-(((trans)-4-(dimethylamino)cyclohexyl)(ethyl)amino)-2-methylbenzamide] was run?
Answer: 5.18

Question: CCN(c1cc(Cl)cc(C(=O)NCc2ncc[nH]2)c1C)[C@H]1CC[C@H](N(C)C)CC1 [Compound 15, N-((1H-imidazol-2-yl)methyl)-5-chloro-3-(((trans)-4-(dimethylamino)cyclohexyl)(ethyl)amino)-2-methylbenzamide] was tested. Which pIC50 did it give?
Answer: < 5.00

Question: How did the pIC50 turn out when CCN(c1cc(Cl)cc(C(=O)NCc2nccn2C)c1C)[C@H]1CC[C@H](N(C)C)CC1 [Compound 16, 5-chloro-3-(((tans)-4-(dimethylamino)cyclohexyl)(ethyl)amino)-2-methyl-N-((1-methyl-1H-imidazol-2-yl)methyl)benzamide] was run?
Answer: 5.51

Question: CCN(c1cc(Cl)cc(C(=O)NCc2nccn2Cc2ccccc2)c1C)[C@H]1CC[C@H](N(C)C)CC1 [Compound 17, N-((1-benzyl-1H-imidazol-2-yl)methyl)-5-chloro-3-(((1r,4r)-4-(dimethylamino)cyclohexyl)(ethyl)amino)-2-methylbenzamide] was tested. Which pIC50 did it give?
Answer: 5.52

Question: How did the pIC50 turn out when CCN(c1cc(Cl)cc(C(=O)NCc2nccn2C(C)C)c1C)[C@H]1CC[C@H](N(C)C)CC1 [Compound 18, 5-chloro-3-(((trans)-4-(dimethylamino)cyclohexyl)(ethyl)amino)-N-((1-isopropyl-1H-imidazol-2-yl)methyl)-2-methylbenzamide] was run?
Answer: < 5.00

Question: How did the pIC50 turn out when CCN(c1cc(Cl)cc(C(=O)NCc2nc3ccccc3[nH]2)c1C)[C@H]1CC[C@H](N(C)C)CC1 [Compound 19, N-((1H-benzo[d]imidazol-2-yl)methyl)-5-chloro-3-(((1r,4r)-4-(dimethylamino)cyclohexyl)(ethyl)amino)-2-methylbenzamide] was run?
Answer: < 5.00

Question: CCN(c1cc(Cl)cc(C(=O)NCc2ncc(C)[nH]2)c1C)[C@H]1CC[C@H](N(C)C)CC1 [Compound 20, 5-chloro-3-(((trans)-4-(dimethylamino)cyclohexyl)(ethyl)amino)-2-methyl-N-((5-methyl-1H-imidazol-2-yl)methyl)benzamide] was tested. Which pIC50 did it give?
Answer: < 5.00

Question: CCN(c1cc(Cl)cc(C(=O)NCCc2nc3ccccc3[nH]2)c1C)[C@H]1CC[C@H](N(C)C)CC1 [Compound 21, N-(2-(1H-benzo[d]imidazol-2-yl)ethyl)-5-chloro-3-(((1r,4r)-4-(dimethylamino)cyclohexyl)(ethyl)amino)-2-methylbenzamide] was tested. Which pIC50 did it give?
Answer: 4.43

Question: How did the pIC50 turn out when CCN(c1cc(Cl)cc(C(=O)NCc2cncn2C)c1C)C1CCOCC1 [Compound 22, 5-chloro-3-(ethyl(tetrahydro-2H-pyran-4-yl)amino)-2-methyl-N-((1-methyl-1H-imidazol-5-yl)methyl)benzamide] was run?
Answer: < 4.30

Question: CCN(c1cc(Cl)cc(C(=O)NCc2nccn2C)c1C)C1CCOCC1 [Compound 23, 5-chloro-3-(ethyl(tetrahydro-2H-pyran-4-yl)amino)-2-methyl-N-((1-methyl-1H-imidazol-2-yl)methyl)benzamide] was tested. Which pIC50 did it give?
Answer: 4.63
